In patent publication US20100184807A1, “Methods to inhibit tumor cell growth by using proton pump inhibitors” (Bio-Quant, Inc., priority 2008, published 2010):

Experiments:
Assay in all cases: MTT tumor cell growth assay
Type in all cases: cell-based
JMI = JMI cells, lansoprazole 1-100 μM, 48 hours
Protocol: (§1) In one study, adherent cells were plated approximately 16-24 hours before the day of the experiment in 180 μl growth media. On the day of the experiment, the plated adherent cells were analyzed and counted and suspension cells were plated in 180 μl growth media. 10× lansoprazole compounds and vehicle was prepared. The 10× lansoprazole compounds were prepared by diluting lansoprazole to final concentrations of 100 μM, 30 μM, 10 μM, 3 μM, and 1 μM. A vehicle was prepared by preparing a solution of PBS, equivalent to the volume used for 10 μM lansoprazole wherein the 1× solution constitutes ˜0.06% PBS. 10 μl of the various 10× lansoprazole solutions and the vehicle were added to the cells. The cells were incubated at 37° C., 5% CO2 for 48 hours. The media was then aspirated. The cell suspension was then spun at 1500 RPM for 10 minutes. The media was slowly removed. 200 μl of MTT solution was added to each well with a concentration of 0.863 mg/ml MTT in the growth media. The cells were incubated at 37° C., 5% CO2 for 4 hours and the medium is then aspirated. The plate containing the cell suspension was then spun at 1500 RPM for 10 minutes. The media was slowly removed using a multichannel pipettor. 100 μl of DMSO was then added to each well. The cells were incubated at 37° C., 5% CO2 for 5 minutes and the absorbance was obtained at 560 nm using a Dynex Opsys MR plate reader. The cells used for this procedure were the following cell lines: IGROV1 (ovarian cancer); OVCAR 8 (ovarian cancer); ES-2 (ovarian cancer); CAOV3 (ovarian cancer); OVCAR5 (ovarian cancer); SUDHL4 (lymphoma); RPMI8226 (myeloma); RPMI6666 (Hodgkin's lymphoma); NC37 (lymphoma); GDM-1 (leukemia); MC/CAR (prostate cancer); DU-145 (prostate cancer), J45-01 (leukemia), MOLT3 (leukemia), HUT78, J-gamma-1 (leukemia), MCF7 […], COL0205 (colon cancer), HL60 CLONE 15 (leukemia), T47D (breast cancer), P116 (intestinal cancer), KU812 (leukemia), SW620 (colon cancer), MK92-M1 (lymphoma), MV-4-11 (leukemia), HS578T (breast cancer), HT29 (colon cancer), HCT 116 (colon cancer), CAKI-1 (kidney cancer), A549 (lung cancer), H460 (lung cancer), A3 (colon cancer), MDA-MB231 […], MALME 3M (melanoma), RXF393 (kidney cancer), RS4.11 (leukemia), PC3 (prostate cancer), OVCAR3 (ovarian cancer), MDA-MB435 (melanoma), HUT102 (lymphoma), HL60 (leukemia), CCRF-CEM (leukemia), HUT78 (lymphoma), 786-O (kidney cancer), ACHN (kidney cancer), A498 (kidney cancer), H226 (lung cancer), H522 (lung cancer), HOP92 (lung cancer), SNB 19 (brain cancer), OVCAR4 (ovarian cancer), H9 (lymphoma), UO-31 (kidney cancer), HH (lymphoma), DAUDI (leukemia), LOXIMVI (melanoma), NAMALWA (lymphoma), EKVX (lung cancer), DOHH2 (lymphoma), SNB75 (brain cancer), SKMEL28 (melanoma), SKMEL5 (melanoma), SKMEL2 (melanoma), M14 (melanoma), UACC 257 (melanoma), H332M (lung cancer), KM12 (colon cancer), HCC2998 (colon cancer), G401 (kidney cancer), RS1184 (lymphoma), MC116 (leukemia), MOLT4 (leukemia), JM1 (liver cancer), HOP-62 (lung cancer), HCT-15 (colon cancer), SF-539 (brain cancer), SF295 (brain cancer), ST486 (lymphoma), U251 (brain cancer), and UACC-62 (melanoma).

DAUDI (leukemia) = conditions: DAUDI cells, lansoprazole 1-100 μM, 48 hours
Protocol: as §1

MC116 (leukemia) = conditions: MC116 cells, lansoprazole 1-100 μM, 48 hours
Protocol: as §1

UO-31 (kidney cancer) = conditions: UO-31 cells, lansoprazole 1-100 μM, 48 hours
Protocol: as §1

SKMEL28 (melanoma) = conditions: SKMEL28 cells, lansoprazole 1-100 μM, 48 hours
Protocol: as §1

OVCAR8 (ovarian cancer) = conditions: OVCAR8 cells, lansoprazole 1-100 μM, 48 hours
Protocol: as §1

MOLT4 (leukemia) = conditions: MOLT4 cells, lansoprazole 1-100 μM, 48 hours
Protocol: as §1

SKMEL5 (melanoma) = conditions: SKMEL5 cells, lansoprazole 1-100 μM, 48 hours
Protocol: as §1

RS4.11 (leukemia) = conditions: RS4.11 cells, lansoprazole 1-100 μM, 48 hours
Protocol: as §1

NK92MI = NK92MI cells, lansoprazole 1-100 μM, 48 hours
Protocol: as §1

MOLT3 (leukemia) = conditions: MOLT3 cells, lansoprazole 1-100 μM, 48 hours
Protocol: as §1

MDA-MB-231 = MDA-MB-231 cells, lansoprazole 1-100 μM, 48 hours
Protocol: as §1

H9 (lymphoma) = conditions: H9 cells, lansoprazole 1-100 μM, 48 hours
Protocol: as §1

UACC-62 (melanoma) = conditions: UACC-62 cells, lansoprazole 1-100 μM, 48 hours
Protocol: as §1

M14 (melanoma) = conditions: M14 cells, lansoprazole 1-100 μM, 48 hours
Protocol: as §1

J45-01 (leukemia) = conditions: J45-01 cells, lansoprazole 1-100 μM, 48 hours
Protocol: as §1

CCRF-CEM (leukemia) = conditions: CCRF-CEM cells, lansoprazole 1-100 μM, 48 hours
Protocol: as §1

HCT-15 (colon cancer) = conditions: HCT-15 cells, lansoprazole 1-100 μM, 48 hours
Protocol: as §1

Measured: tumor cell growth reduction

Cc1c(OCC(F)(F)F)ccnc1C[S+]([O-])c1nc2ccccc2[nH]1 (stereo not drawn) [lansoprazole]
significant tumor cell growth reduction: all assays above
